Series [1] in a line: Trilostane and ketotrilostane concentrations in dogs after a single daily dose. It counts as in vivo, dog. How it is done: Trilostane concentrations in the plasma of 6 dogs: day 0, phase 1 (one 60 mg capsule per day), study no. GB009/01-001.
Ketotrilostane concentrations in the plasma of 6 dogs: day 0, phase 1 (one 60 mg capsule per day), study no. GB009/01-001.
The significance of this is that the metabolite, ketotrilostane, is not retained in the body for an extended period of time.

Series [2] relates to horses with equine Cushing's disease. Description: Clinical signs in horses with equine Cushing's disease, trilostane once daily in feed for 30 days. In kind it is in vivo, horse. How it is done: The ability of intermittent administration of Trilostane to block adrenal steroidogenesis was assessed in twenty horses (mean age 21, SD 5.7 years) with equine Cushing's disease. The combined dexamethasone suppression thyrotropin releasing hormone (TRH) stimulation test (17 horses) or TRH stimulation test (3 horses) was used as a standard test of function of the hypothalamic-pituitary-adrenal axis. Serum samples for cortisol analysis were collected via indwelling catheter at 4-hourly intervals over 24 hours on each of the test periods. These were before treatment then at 210 minutes (30 min after I mg i.v. TRH) and 22 hours after […] dexamethasone i.m. Affected horses were treated with 0.4 to 1 mg/kg, (mean 0.5 mg/kg) trilostane administered once daily in feed for a period of 30 days. After 30 days endocrine testing was repeated. Serum cortisol before and after treatment was compared by paired t-test.

In a further series the test system is advanced breast cancer. To be noted: published studies (Williams et al 1993; Ingle et al 1990); cited from earlier work.
Another series relates to serum cortisol. Description: Canine serum cortisol over 24 hours pre and post trilostane. It counts as in vivo, dog. The note with it: for Canine serum cortisol, post: individual dogs; for Canine serum cortisol, post, Mean: mean of dogs. The source says: With this level of lowering there was relief of the symptoms of the Cushing's disease.

The structures appear in SMILES notation. Several values for one entry are separate records, joined by “and”; a condition that tells them apart may be missing. Identical values can stand only once. Entries after “also recorded” stand apart in the source; their conditions may differ.

Turning to `CC12CCC3C(CC[C@@]45O[C@@H]4C(=O)C(C#N)CC35C)C1CC[C@@H]2O` (stereo partly drawn) [Trilostane, 2α-cyano-4α,5α-epoxyandrostan-17β-ol-3-one], the Elimination of trilostane entry in series [1] (after single daily dose) is on record as “rapid elimination”. The “Time of peak serum concentration of trilostane” value in series [1] (after single daily dose (FIG. 1, one 60 mg capsule per day, 6 dogs)) is 1 to 3 h. Also, in series [2] (lethargy present in 19 horses), the “Lethargy / demeanour after therapy” value was “improvement in demeanour was evident in all horses”. In series [2] (present in 11 horses), the “Polyuria and/or polydipsia after treatment” value is “reduced ill all”. Also, the “Recurrent, chronic or persistent laminitis improved or showed no recurrence” value in series [2] (present in 17 horses) is recorded as 14 cases. Also, the “Severe, acute laminitis on presentation, response” value in series [2] (three horses, rotation and sinking on radiographs) was “did not respond to trilostane”. In addition, in series [2] (trilostane once-per-day), the Overall clinical response result was “a clinical response was observed; also recorded: improvement in most of the clinical signs in all horses”. Further, the Response rate in the series with advanced breast cancer was 29% and 38%. The “Serum cortisol lowering after daily dose, in words” value in the series with serum cortisol (dogs with Cushing's disease) was “reduced significantly at 4 hrs”. Further, the “Canine serum cortisol, post” value in the series on serum cortisol (4 hrs after dose, Trilostane 5–10 mg/k over 4–21 days) is 5 nmol/l (4×) and 62 nmol/l (2×) and 10 nmol/l and 60 nmol/l and 57 nmol/l and 63 nmol/l; with serum cortisol (8 hrs after dose), 5 nmol/l (4×) and 48 nmol/l and 171 nmol/l and 51 nmol/l and 262 nmol/l and 183 nmol/l and 315 nmol/l; in the series on serum cortisol (12 hrs after dose), 5 nmol/l and 75 nmol/l and 83 nmol/l and 66 nmol/l (2×) and 158 nmol/l and 197 nmol/l and 143 nmol/l and 164 nmol/l and 318 nmol/l; in the series on serum cortisol (19 hrs after dose) it was 52 nmol/l and 101 nmol/l and 92 nmol/l and 63 nmol/l and 85 nmol/l and 183 nmol/l (3×) and 139 nmol/l and 230 nmol/l; in the series with serum cortisol (20 hrs after dose), 166 nmol/l and 105 nmol/l and 86 nmol/l and 97 nmol/l and 61 nmol/l and 154 nmol/l and 144 nmol/l (2×) and 108 nmol/l and 199 nmol/l; in the series on serum cortisol (24 hrs after dose) it was 117 nmol/L and 109 nmol/L and 51 nmol/L and 74 nmol/L and 66 nmol/L and 171 nmol/L and 144 nmol/L and 131 nmol/L and 154 nmol/L and 246 nmol/L. Besides, the “Canine serum cortisol, post” value in the series with serum cortisol (28 hrs after dose) is 147 nmol/L and 112 nmol/L and 75 nmol/L and 86 nmol/L and 53 nmol/L and 124 nmol/L and 190 nmol/L and 174 nmol/L and 246 nmol/L and 313 nmol/L. Moreover, the “Canine serum cortisol, post, Mean” value with serum cortisol (4 hrs) is 33 nmol/L; in the series with serum cortisol (8 hrs), 105 nmol/L; in the series on serum cortisol (12 hrs), 130 nmol/L; with serum cortisol (19 hrs) it was 131 nmol/L; with serum cortisol (20 hrs), 126 nmol/L; in the series with serum cortisol (24 hrs) it was 126 nmol/L. In addition, in the series on serum cortisol (28 hrs), the “Canine serum cortisol, post, Mean” value worked out at 152 nmol/L.
